Values after ≈ are worked out from the molar mass of the structure shown.
System: S. epidermidis A22547
Assay type: cell-based
Details: Staphylococcus epidermidis, Nutrient agar (Eiken), kanamycin-resistant

Which MIC does the source give for `Cc1cc(O)c(C(N)=O)c2nc(-c3nc(CO)ncc3O)oc12` [Boxazomycin A] here?
The MIC was 0.4 µg/mL (≈ 1.26 µM).

For `Cc1ncc(O)c(-c2nc3c(C(N)=O)c(O)cc(C)c3o2)n1` [Boxazomycin B], which MIC is on record?
The MIC was 0.2 µg/mL (≈ 0.666 µM).

With `NC[C@H]1O[C@H](O[C@H]2[C@H](O)[C@@H](O[C@H]3O[C@H](CO)[C@@H](O)[C@H](N)[C@H]3O)[C@H](N)C[C@@H]2N)[C@H](O)[C@@H](O)[C@@H]1O` [Kanamycin, kanamycin, reference compound] as the compound, how does the MIC read?
The MIC was 25 µg/mL (≈ 51.6 µM).

— patent US4690926A, “Boxazomycin A and B, new antibiotics containing benzoxazole nucleus” (Bristol-Myers Company, priority 1986, dated 1987)
